From US10330673B2, “Fluorescent chemical sensor for biological amines” (The Curators of the University of Missouri, priority 2013, dated 2019)

Legend:
[1] = Fluorescence quantum yield of sensor bound to glutamate; type: physicochemical
Description: Steady-state fluorescence spectroscopic studies were performed using a Horiba Scientific Fluorolog-3 Model FL3C-111 spectrofluorometer and data was collected and analyzed using HJY FluorEssence™ 3.5.1.20 software package. UV-visible spectra were obtained on a Varian Cary 1E UV-visible spectrophotometer. A stock solution of each benzene- or thiophene-based coumarin-3-aldehyde derivative (1 μM) in buffer (25 mM HEPES, 50 mM Na2S2O3, pH=5.0) was prepared. Each solution contained 1% (v/v) DMSO as a cosolvent except as noted. The slit width was 2 nm for both excitation and emission. The bound benzene- and thiophene-coumarin-3-aldehyde derivatives contained 500 mM glutamate (pH=5.0).
To determine the relative quantum yield of fluorescence (Φfl) for the benzene-based derivatives, a 1.0 μM solution of fluorescein (absolute Φfl=0.85) in 0.1 N NaOH (pH 13) was used as a fluorescence standard. The unbound derivatives were excited at 473 nm and the bound derivatives were excited at 488 nm. To determine the relative quantum yield of fluorescence (Φfl) for the thiophene-based derivatives, a 1.0 μM solution of rhodamine B (absolute Φfl=0.31) in water (pH 7) was used as a fluorescence standard. The unbound derivatives were excited at 473 nm and the bound derivatives were excited at 515 nm. Quantum yields were obtained in triplicate and calculated as per the following equation: […]

[2] = test system: epinephrine-enriched chromaffin cells; assay: Live-cell confocal imaging with Compound I-2, epinephrine-enriched cells; type: cell-based, bovine; conditions: 0.1 μM
Description: Chromaffin cells were separated into norepinephrine-enriched and epinephrine-enriched fractions by centrifugation on a Percoll gradient. Both populations were independently incubated with a 0.1 μM solution of Compound I-2 at 37° C. for 30 minutes and then washed to remove excess sensor and plated.
Chromaffin cells were isolated from bovine adrenal glands as previously described. Following centrifugation at 18° C. at 13,000 rpm for 45 minutes in the Percoll gradient, chromaffin cells separate into fractions enriched with either epinephrine-enriched cells (denser band) and norepinephrine-enriched cells (lighter band). Moro, M. A.; Lépez, M. G.; Gandía, L.; Michelena, P.; Garcia, G. Separation and culture of living adrenaline- and noradrenaline-containing cells from bovine adrenal medullae. Anal. Biochem. 1990, 185, 243-248. Over 90% of the catecholamine content found in the cells in the denser fraction are epinephrine, whereas approximately 67% of the catecholamine content in the lighter fraction are norepinephrine. Liu, X.; Barizuddin, S.; Shin, W.; Mathai, C. J.; Gangopadhyay, S.; Gillis, K. D. Microwell device for targeting single cells to electrochemical microelectrodes for high-throughput amperometric detection of quantal exocytosis. Anal. Chem. 2011, 83, 2445-2451. The two cell fractions were collected from the Percoll gradient with careful pipetting and separately cultured. […]

[3] = test system: EP-enriched chromaffin cells; assay: Fixed-cell staining with I-2 and anti-PNMT antibody, EP-enriched cells; type: cell-based, bovine; conditions: 585 nm = anti-PNMT/Cy3, 525 nm = I-2 (1 μM), ImageJ
Excerpt: To further validate the selectivity of the inventive sensor, the inventive detection method is validated with an established procedure in which phenylethanolamine N-methyltransferase (PNMT) is stained with an antibody and visualized with a Cy3-conjugated secondary antibody. It has been shown that epinephrine-enriched cell populations gave the highest level of PNMT staining, while norepinephrine-enriched populations gave lower staining (ca. 20% of that with epinephrine-enriched cells). For this experiment, three populations of chromaffin cells (norepinephrine-enriched, epin ephrine-enriched, and mixed) were stained with Compound I-2 and fixed in 4% paraformaldehyde. The fixed cells were stained with the anti-PNMT and secondary antibodies.
Chromaffin cells were isolated from bovine adrenal glands as previously described. […]
NE-enriched cells, EP-enriched cells and mixed cells stained with I-2 (1 μM) and plated on 0.0025% Poly (1-lysine) coated cover slips, after three washed with pre-warmed phosphate-buffered saline (pH=7.4, PBS), were fixed in 4% paraformaldehyde (Sigma, St. Louis, Mo., USA) in PBS for 60 min at room temperature (RT), followed by 6 min in methanol chilled to −20° C. […] After three washed in PBS, bound antibody was detected using Cy™3-conjugated AffiniPure Donkey Anti-Rabbit (1:150 dilution, Jackson ImmunoResearch Laboratories, Inc, Nest Grove, Pa., 19390). […]

[4] = Binding affinity toward free primary amines

SMILES: CCN(CC)c1ccc2c(-c3ccc(OC)cc3)c(C=O)c(=O)oc2c1 [Compound I-2, 7-diethylamino-3-formyl-4-(4′-methoxyphenyl)coumarin]
- Quantum Yield (Φ) ([1]; bound to glutamate): 0.0095
- difference in quantum yields, bound to glutamate vs bound to norepinephrine ([1]; in words): three-fold
- cell fluorescence, confocal microscopy ([2]; 37° C., 30 minutes, 488 nm excitation (bound sensor)): marginal fluorescence
- cell fluorescence, confocal microscopy ([2]; excited at 440 nm (unbound sensor)): No significant fluorescence
- average fluorescence intensity at 585 nm vs. 525, epinephrine-enriched relative to norepinephrine-enriched cells [3]: 6 times
- binding affinities toward free primary amines [4]: ~10 M⁻¹
